Test [1] relates to HeLa cells. Nature of the test: Bidimensional HeLa cell proliferation (MTT assay), drugs alone or combined. The conditions noted are these: for IC50: read-out: IC50, bidimensional HeLa cell growth; for decrement of the IC50 value: bidimensional HeLa, presence of either NSAID (celecoxib or DMC) vs monotherapy. Format: cell-based, human. As for the experimental part: (§1) For cellular proliferation with and without drugs, the cell lines (20 × 10^3 cells/well) were grown as bidimensional in 96-well plates containing Dulbecco’s Modified Eagle’s Medium (DMEM) (Sigma-Aldrich) for 24 h.
(§2) The combination effect of NSAIDs and chemotherapy drugs on proliferation was also analyzed by determining the resistance index ratio (RI) and the combination index (CI) value.
(Tetrazolium dyes change colour on reduction, which living cells bring about.)

In test [2] the test system is HeLa MCTS. Nature of the test: HeLa multi-cellular tumor spheroid (MCTS) growth, preventive and curative protocols. Format: cell-based, human. As for the experimental part: HeLa, SiHa, and U373 (1 × 10^5 cells/mL) were seeded onto 2% (w/v) agarose-coated culture dishes in 5 mL DMEM. […] The growth of each MCTS was analyzed by fitting data to a logistic function for exponential growth using the Origin 8 software (Northampton MA, USA).
as §2

Test [3] relates to 3T3 fibroblasts. Nature of the test: Bidimensional 3T3 fibroblast proliferation (MTT assay). It is filed as cell-based, mouse. The conditions noted are these: read-out: IC50, bidimensional 3T3 cell growth. How it is done:
as §1, §2

Test [4] concerns OxPhos flux in HeLa cells. Nature of the test: OxPhos flux (oligomycin-sensitive oxygen consumption) in HeLa cells. It is filed as cell-based, human. The conditions noted are these: for OxPhos flux decrease: 5 µM celecoxib, 2 µM cisplatin, 15 µM paclitaxel, 24 h exposure; for OxPhos (mitochondrial flux) decrease, summary in Discussion: celecoxib or DMC alone, or combined with chemotherapy drugs.
Experimental: For total oxygen consumption and OxPhos fluxes, HeLa, SiHa, or U373 cells or 3T3 fibroblasts (1 mg protein/mL), cultured for 24 h with the indicated drugs, were harvested and further incubated at 37 °C in air-saturated KR buffer and under constant agitation.

The subject of test [5] is HFF1 fibroblasts. Nature of the test: Bidimensional HFF1 fibroblast proliferation (MTT assay). Format: cell-based. The conditions noted are these: read-out: IC50, bidimensional HFF1 cell growth. As for the experimental part: as §1
Test [6] deals with MCF-10A mammary gland cells. Nature of the test: Bidimensional MCF-10A cell proliferation (MTT assay). Format: cell-based, human. The conditions noted are these: read-out: IC50, bidimensional MCF-10A cell growth. As for the experimental part:
as §1

The subject of test [7] is glycolysis flux in HeLa cells. Nature of the test: Glycolytic flux (lactate production) in HeLa cells. It is filed as cell-based, human. The conditions noted are these: 5 µM celecoxib, 2 µM cisplatin, 15 µM paclitaxel, alone; 24 h exposure. How it is done:
Glycolysis was started by adding 5 mM glucose (Sigma-Aldrich). Cellular samples were collected after 0 and 10 min of incubation, swiftly mixed with 30% (w/v) of cold perchloric acid, and centrifuged at 3500 rpm for 5 min. Supernatants were neutralized with 1N KOH/100 mM Tris. Cells were also incubated with 2-deoxyglucose (2-DG, 20 mM) (Sigma-Aldrich) to prevent lactate production by glycogen degradation. Lactate production was determined by the lactate dehydrogenase (Roche, Mannheim, Germany) coupled assay registering the NADH formation at 340 nm.

Test [8] concerns HeLa cells. Nature of the test: Cell invasiveness assay (Boyden chamber), HeLa. Format: cell-based, human. The conditions noted are these: celecoxib (5 µM), paclitaxel (15 µM), cisplatin (2 µM), alone or combined, 24 h. As for the experimental part:
The lower compartment was filled with serum-free DMEM. After 24 h at 37 °C, the invasive cells found in the lower compartment were loaded with 60 nM calcein AM (acetomethylester) for 60 min.

The test system of test [9] is COX-2. The conditions noted are these: at 100 µM; cited from earlier work.
Test [10] has as its system OxPhos flux in HeLa cells. The conditions noted are these: vs. non-treated cells; cited from earlier work.
Setting [11] is: drug alone, 24 h of drug exposure.
Where [12] appears, read: drug alone, added at the beginning of culture, determined at day 20 of growth, read-out: IC50, tridimensional HeLa MCTS, Preventive.
Setting [13] is: drug alone, added once spheroids were formed (day 10), determined at day 20 of growth, read-out: IC50, tridimensional HeLa MCTS, Curative.
[14] abbreviates: Mus musculus, NIH3T3, drug alone, 24 h of drug exposure, non-cancer.
[15] abbreviates: Homo sapiens, HFF-1, drug alone, 24 h of drug exposure, non-cancer.
Setting [16] is: Homo sapiens, MCF-10A, drug alone, 24 h of drug exposure, non-cancer.
[17] abbreviates: Homo sapiens, HeLa, drug alone, 24 h of drug exposure.
[18] abbreviates: Homo sapiens, HeLa, 480 h, drug alone, added at the beginning of culture, determined at day 20 of growth, read-out: IC50, tridimensional HeLa MCTS, Preventive.
[19] abbreviates: Homo sapiens, HeLa, drug alone, added once spheroids were formed (day 10), determined at day 20 of growth, read-out: IC50, tridimensional HeLa MCTS, Curative.
Setting [20] is: drug alone, 24 h of drug exposure, non-cancer.
[21] abbreviates: Homo sapiens, HeLa, 480 h, read-out: IC50, tridimensional HeLa MCTS, Preventive.
The mark [22] stands for this setting: Homo sapiens, HeLa, read-out: IC50, tridimensional HeLa MCTS, Curative.

Like-named read-outs stand apart in the source and are kept apart here.

Turning to `Cc1c(C)c2c(c(C)c1OC(=O)CCC(=O)O)CC[C@@](C)(CCC[C@H](C)CCC[C@H](C)CCCC(C)C)O2` [α-TOS, α-tocopheryl succinate], the IC50 in [1] (setting [11]) was found to be 1.2 ± 0.46 µM; in test [2] (setting [12]) it was 0.01 ± 0.004 µM; in test [2] (setting [13]), 50 ± 11 µM.
As to “methoxy-tocopheryl oxyacetic acid [M-TEA]”, in [1] (setting [11]), the IC50 came out at 1.2 ± 0.48 µM.
Regarding `CC(=O)O[C@H]1C(=O)[C@@]2(C)[C@H]([C@H](OC(=O)c3ccccc3)[C@]3(O)C[C@H](OC(=O)[C@H](O)[C@@H](NC(=O)c4ccccc4)c4ccccc4)C(C)=C1C3(C)C)[C@]1(OC(C)=O)CO[C@@H]1C[C@@H]2O` [Paclitaxel], the IC50 worked out at 80 ± 12 µM in [3] (setting [14]); 68 ± 30 µM in [5] (setting [15]); 100 ± 18 µM in test [6] (setting [16]); 21 ± 4 µM in test [1] (setting [17]); 0.016 ± 0.005 µM in test [2] (setting [18]); 26.5 ± 0.1 µM in test [2] (setting [19]). Also, in [4] (alone or in combination), the OxPhos flux decrease result is on record as “did not significantly affect”. Moreover, the glycolysis decrease in test [7] was 40–60%. For the same compound, in test [8], the “decrease of invasiveness potential” value is “did not alter”.
Casiopeina II-gly [CasII-gly]: the IC50 amounted to 9 ± 2 µM in test [3] (setting [20]); 17 ± 3 µM in test [6] (setting [20]); 1.5 ± 0.9 µM in test [1] (setting [11]); 0.03 ± 0.0075 µM in test [2] (setting [12]); 106 ± 2 µM in test [2] (setting [13]). The “decrease of IC50 values of cisplatin, paclitaxel, and doxorubicin” value in test [1] (bidimensional HeLa cultures, co-added drug vs monotherapy) is reported as 19–54%; in test [2] (tridimensional HeLa cultures) it was 62–96%. In addition, the “increase of cisplatin toxicity (decrease of cisplatin IC50)” value in test [2] (HeLa MCTS) was 84–96%.
Turning to `N.N.O=C([O-])C1(C(=O)[O-])CCC1.[Pt+2]` [Carboplatin, carboplatin], the IC50 in test [3] (setting [20]) is greater than 5000 µM; in test [6] (setting [20]), greater than 1000 µM; in test [1] (setting [11]) it was 1000 ± 400 µM; in test [2] (setting [12]), 0.165 ± 0.028 µM; in test [2] (setting [13]) it was 287 ± 43 µM. Further, the “IC50, bidimensional HeLa cell growth” value in test [1] (setting [11]) is “in the mM range”.
`Cc1c(C)c2c(c(C)c1OCC(=O)O)CC[C@@](C)(CCC[C@H](C)CCC[C@H](C)CCCC(C)C)O2` [α-TEA, α-tocopherol ether linked acetic acid analog]: the IC50 turned out to be 4.7 ± 0.7 µM in [1] (setting [17]), 0.025 ± 0.006 µM in [2] (setting [18]) and 30 ± 2 µM in test [2] (setting [19]).
For `Cc1ccc(C)c(-c2cc(C(F)(F)F)nn2-c2ccc(S(N)(=O)=O)cc2)c1` [DMC, 2,5-dimethylcelecoxib], the IC50 was 69 ± 8.5 µM in test [3] (setting [14]); 44 ± 11 µM in test [5] (setting [15]); greater than 100 µM in test [6] (setting [16]); 48 ± 2 µM in test [1] (setting [17]); 0.01 ± 0.002 µM in [2] (setting [18]); 32 ± 10 µM in test [2] (setting [19]). Also, the inhibition at 15 µM in test [4] (Homo sapiens, HeLa, DMC (15 µM), paclitaxel (20 µM), cisplatin (5 µM), alone or in combination, 24 h, n=1 (Figure S3)) worked out at 60%. Besides, the “OxPhos (mitochondrial flux) decrease, summary in Discussion” value in test [4] is given as 50–60%. Further, the “lowering of cisplatin and paclitaxel IC50 values” in [2] (HeLa MCTS curative protocol) was 45–73%; in [2] (HeLa MCTS preventive protocol), 52–55%. For the same compound, the COX-2 activity blocked in test [9] is listed as 15%.
With `COc1cccc2c1C(=O)c1c(O)c3c(c(O)c1C2=O)C[C@@](O)(C(=O)CO)C[C@@H]3O[C@H]1C[C@H](N)[C@H](O)[C@H](C)O1` [Doxorubicin, doxorubicin], the IC50 in test [3] (setting [14]) was found to be 51 ± 18 µM; in test [5] (setting [15]) it was 65 ± 19 µM; in [6] (setting [16]), 82 ± 25 µM; in test [1] (setting [17]), 26 ± 6 µM; in test [2] (setting [18]) it was 0.048 ± 0.007 µM; in test [2] (setting [19]), 86 ± 5 µM. In addition, in [1], the “decrement of the IC50 value” is recorded as 38–66%.
As to `N.N.[Cl][Pt][Cl]` [Cisplatin, cisplatin], the OxPhos flux decrease result in test [4] (alone or in combination) is “did not significantly affect”. In addition, the IC50 was 59 ± 26 µM in test [5] (setting [20]); 82 ± 4 µM in test [6] (setting [20]); 15 ± 3 µM in [1] (setting [11]); 0.05 ± 0.017 µM in test [2] (setting [12]); 270 ± 20 µM in test [2] (setting [13]). Further, the glycolysis decrease in [7] is 40–60%. In test [8], the “decrease of invasiveness potential” value is given as “did not alter”. Besides, in [1], the “decrement of the IC50 value” is reported as 38–66%.
As for `O=P1(N(CCCl)CCCl)NCCCO1` (stereo not shown) [Cyclophosphamide, cyclophosphamide], the IC50 was greater than 1000 µM in [3] (Mus musculus, NIH3T3, 24 h); 102 ± 35 µM in test [6] (Homo sapiens, MCF-10A, 24 h); 16 ± 3 µM in [1] (Homo sapiens, HeLa, 24 h); 0.136 ± 0.087 µM in test [2] (setting [21]); 315 ± 30 µM in [2] (setting [22]).
On to `Cc1ccc(-c2cc(C(F)(F)F)nn2-c2ccc(S(N)(=O)=O)cc2)cc1` [Celecoxib, celecoxib], for which the IC50 was 119 ± 7 µM in test [3] (Mus musculus, NIH3T3, 24 h); 96 ± 13 µM in test [5] (Homo sapiens, HFF-1, 24 h); greater than 100 µM in [6] (setting [16]); 55 ± 9 µM in test [1] (setting [17]); 0.001 ± 0.0003 µM in test [2] (setting [21]); 7.5 ± 2 µM in test [2] (setting [22]). For the same compound, the OxPhos flux decrease in test [4] (alone or in combination) is recorded as 36–50%. Also, the “OxPhos (mitochondrial flux) decrease, summary in Discussion” value in test [4] is recorded as 50–60%. In addition, the glycolysis decrease in test [7] is listed as 36–50%. Besides, in test [8], the “decrease of invasiveness potential” value was “did not alter”. Also, the “OxPhos and mitochondrial membrane potential affected” value in [10] is 50–80%. Moreover, in test [2] (HeLa MCTS, both preventive and curative protocols), the “decrease of chemotherapy drug IC50 values” is greater than 70%.
On to `Nc1ccn([C@@H]2O[C@H](CO)[C@@H](O)C2(F)F)c(=O)n1` [Gemcitabine, gemcitabine], for which the IC50 in test [3] (setting [14]) was greater than 2000 µM; in test [6] (setting [16]), greater than 1000 µM; in [1] (setting [17]), 30 ± 5 µM; in test [2] (setting [18]) it was 0.065 ± 0.017 µM; in test [2] (setting [19]), 128 ± 20 µM.

As usually defined, the IC50 is the point on the concentration scale where inhibition reaches its midpoint. In general, inhibition refers to the drop in the measured response relative to a control, in per cent.

Values taken from PMC7765098, “Non-Steroidal Anti-Inflammatory Drugs Increase Cisplatin, Paclitaxel, and Doxorubicin Efficacy against Human Cervix Cancer Cells” (Pharmaceuticals, 2020).
